Consider four compounds from patent publication US20040215021A1, “Stable lansoprazole containing more than 500 ppm, up to about 3,000 ppm water and more than 200 ppm, up to about 5,000 ppm alcohol” (priority 2002, published 2004).

Structures are written as SMILES. Where two headings read alike, the source gives them in different places.

For data set [1] the following is noted: cited from earlier work.
A short description of data set [2]: Stability of lansoprazole under different storage conditions (HPLC impurities). The data set is classed as physicochemical. The source says:
The obtained lansoprazole is stable.
(§1) Chromatographic purity method of lansoprazole is detailed in the monograph in USP Forum Vol.26(5) [September-October 2000].

A short description of data set [3]: Stability of stabilized vs. non-stabilized 'solvent-free' lansoprazole (HPLC impurities, color). The data set is classed as physicochemical. Conditions: 3 months, 40° C., 75% humidity.
Excerpt: as §1

As to `Cc1c(OCC(F)(F)F)ccnc1C[S+]([O-])c1nc2ccccc2[nH]1` (centres unmarked) [Lansoprazole, 2-[[[3-methyl-4-(2,2,2-trifluoro-ethoxy)-2-pyridinyl]methyl]sulfinyl]-1H-benzimidazole], the Color on storage entry in data set [1] (4 months at 40° C. and 75% room humidity) was “pale brown”; in data set [1] (4 months at 40° C., absence of humidity) it was “pale yellowish brown”. In addition, the LNP-SO2 in data set [2] (1 month, 2-8° C.) was 0.04%; in data set [2] (1 month, 25° C., 60% humidity), 0.04%; in data set [2] (2 month, 2-8° C.), 0.04%; in data set [2] (2 month, 25° C., 60% humidity) it was 0.04%; in data set [2] (2 weeks, 25° C., 60% humidity), 0.04%; in data set [2] (3 month, 2-8° C.) it was 0.04%. The LNP-SO2 is 0.04% in data set [2] (3 month, 25° C., 60% humidity); 0.04% in data set [2] (6 month, 2-8° C.); 0.04% in data set [2] (6 month, 25° C., 60% humidity); 0.05% in data set [2] (9 month, 2-8° C.); 0.05% in data set [2] (9 month, 25° C., 60% humidity); 0.04% in data set [2] (12 month, 25° C., 60% humidity). Further, the LNP-SO2 in data set [2] (time 0) is 0.04%. Moreover, the LNPS in data set [2] (1 month, 2-8° C.) is recorded as 0.01%; in data set [2] (1 month, 25° C., 60% humidity), 0.01%; in data set [2] (2 month, 2-8° C.), 0.01%; in data set [2] (2 month, 25° C., 60% humidity), 0.01%; in data set [2] (2 weeks, 25° C., 60% humidity), “<detection limit”; in data set [2] (3 month, 2-8° C.) it was “<detection limit”. In addition, the LNPS entry in data set [2] (3 month, 25° C., 60% humidity) is on record as “<detection limit”; in data set [2] (6 month, 2-8° C.) it was “<detection limit”; in data set [2] (6 month, 25° C., 60% humidity), “<detection limit”; in data set [2] (9 month, 2-8° C.), “<detection limit”; in data set [2] (9 month, 25° C., 60% humidity), 0.04%; in data set [2] (12 month, 2-8° C.), “<detection limit”. For the same compound, the LNPS in data set [2] (12 month, 25° C., 60% humidity) is 0.07%; in data set [2] (time 0) it was “<detection limit”. In addition, the “Total Impurities” value in data set [2] (1 month, 2-8° C.) is recorded as 0.05%; in data set [2] (1 month, 25° C., 60% humidity) it was 0.09%; in data set [2] (2 month, 2-8° C.), 0.05%; in data set [2] (2 month, 25° C., 60% humidity), 0.08%; in data set [2] (2 weeks, 25° C., 60% humidity), 0.04%; in data set [2] (3 month, 2-8° C.), 0.04%. For the same compound, the “Total Impurities” value in data set [2] (3 month, 25° C., 60% humidity) is reported as 0.1%; in data set [2] (6 month, 2-8° C.) it was 0.04%; in data set [2] (6 month, 25° C., 60% humidity), 0.12%; in data set [2] (9 month, 2-8° C.), 0.05%; in data set [2] (9 month, 25° C., 60% humidity), 0.18%; in data set [2] (12 month, 2-8° C.), 0.03%. Further, the “Total Impurities” value in data set [2] (12 month, 25° C., 60% humidity) is reported as 0.32%; in data set [2] (time 0), 0.04%. Further, the “Stability (in words)” value in data set [2] (product of Example 2, water 2,200 ppm, alcohol <50 ppm) is on record as “stable”.
`Cc1c(OCC(F)(F)F)ccnc1C[S+]([O-])c1nc2ccccc2[nH]1` (centres unmarked) [Lansoprazole Not Stabilized With Ammonia]: in data set [3], the Color result is given as “Brownish”, the LNP-SO2 was found to be 0.04%, the LNPS is reported as 0.06% and the “Total Impurities” value stood at 0.31%.
For `Cc1c(OCC(F)(F)F)ccnc1C[S+]([O-])c1nc2ccccc2[nH]1` (centres unmarked) [Lansoprazole Stabilized With Ammonia] the same measures were “White”, 0.02%, 0.03% and 0.08%.
Consider `Cc1c(OCC(F)(F)F)ccnc1C[S+]([O-])c1nc2ccccc2[nH]1` (centres unmarked) [wet lansoprazole product], for which the “Stability (in words)” value in data set [2] (Example 4, wet product before drying, water about 2,200 ppm, ethanol about 300 to about 500 ppm expected) is listed as “behave similarly to the dry lansoprazole”.
